Reference: paper PMC7187165, “Structure‐Based Design, Synthesis, and Biological Evaluation of Triazole‐Based smHDAC8 Inhibitors” (Chemmedchem, 2020)
Values joined by “and” are separate entries in the source; they are usually repeats but may differ in a detail not shown here. Equal values may be shown once. Read-outs that look alike come from different tables or passages of the source. Each block holds one compound with its values, some of them ahead of it.

Experiments:
[1] = target: T1, smHDAC8 (Schistosoma mansoni, UniProt A5H660); test: biochemical; format: biochemical; details: for inhibition at 5 µM / inhibition at 50 µM: pretest; for inhibition at 5 µM: read-out: smHDAC8 % inhibition @ 5 μM (Fluor de Lys); for inhibition at 50 µM: read-out: smHDAC8 % inhibition @ 50 μM (Fluor de Lys); for inhibition at 10 µM: read-out: smHDAC8 (% inhibition, Fluor de Lys)
T1 construct: made in house; host or cells: E. coli
T1 sequence (A5H660 1-440): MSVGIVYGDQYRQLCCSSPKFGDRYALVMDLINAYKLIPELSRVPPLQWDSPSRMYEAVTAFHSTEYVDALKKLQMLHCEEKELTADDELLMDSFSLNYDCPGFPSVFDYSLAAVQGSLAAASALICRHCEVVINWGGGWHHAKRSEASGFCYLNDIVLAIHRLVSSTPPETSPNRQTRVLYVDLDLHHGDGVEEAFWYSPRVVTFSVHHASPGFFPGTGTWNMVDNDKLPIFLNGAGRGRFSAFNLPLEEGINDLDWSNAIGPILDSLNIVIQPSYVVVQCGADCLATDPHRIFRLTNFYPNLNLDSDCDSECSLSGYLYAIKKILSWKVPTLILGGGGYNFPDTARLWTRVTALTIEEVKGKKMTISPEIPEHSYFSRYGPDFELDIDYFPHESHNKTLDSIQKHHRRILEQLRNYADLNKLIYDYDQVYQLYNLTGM

[2] = system: S. mansoni larvae (schistosomula); test: Schistosome viability testing, resazurin-based fluorescence assay; format: cell-based, Schistosoma mansoni
Protocol: Selected compounds (Table 4) were tested for their effects on the viability of S. mansoni larvae (schistosomula) using a resazurin‐based fluorescence assay that measures mitochondrial activity. Assays were carried out in triplicate on two separate batches of schistosomula and the results are expressed as the percentage of the value obtained with the solvent (DMSO). Initial testing was done at 10 μM as part of a high‐throughput screening procedure and compounds provoking at least a 25 % reduction in viability were tested at 20 μM to determine a dose‐response. […] However, the level of reduction obtained was mediocre and this compound was not considered for further testing. […] A variety of schistosome viability assays are currently used in the field [e. g. […] However, since we have compared compounds that a priori have the same biological target, it is unlikely that they will have different effects on the parasite and that a different viability assay, for example based on morphological characteristics,52 would give different results. Nevertheless, in view of the potency of the triazole‐based smHDAC8 inhibitors on the enzyme, their further development, aimed at improving their bioavailability, is justified.
Schistosome viability testing: The resazurin‐based assay to determine the effects of novel inhibitors targeting smHDAC8 on the viability of S. mansoni schistosomula was carried out exactly as previously described.27, 62 Briefly, newly transformed schistosomula (NTS) were obtained in vitro as previously described63 by mechanical transformation of S. mansoni cercaria. A suspension of NTS was prepared at a concentration of 100 per 100 μL using Medium 199 (Invitrogen) supplemented with 10 % fetal calf serum (Gibco), penicillin (50 U×mL^−1), streptomycin (50 μg×mL^−1), and rifampicin (60 μg×mL^−1). Schistosomula were kept in culture for 3 h at 37 °C and 5 % CO2 prior to use in screening. Drug stock solutions of 20 mM in DMSO were used. Mid‐dilutions were performed in 100 % DMSO and 1 μL added to 100 μL/well of M199 medium in black 96 well plates (Nunc, UK) with supplemented Medium 199 and 100 μL of the prepared NTS suspension (100 NTS/well). Live and dead schistosomula (treated with 70 % ethanol) were used as positive and negative controls. Experiments were carried out in triplicate wells in two biological replicates and the compounds were tested at final concentrations of 10 and 20 μM. After 48 h of drug exposure, 20 μL of resazurin solution (Abd Serotec) were added to each well. Finally, after 72 h of exposure, the fluorescence intensity of the highly red fluorescent resorufin product was measured using an excitation wavelength of 530 nm and an emission wavelength of 590 nm in an Infinite M200 Pro microplate reader (TECAN). Background fluorescence of the drug containing medium were determined for each drug dilution using wells containing only DMSO as control.

[3] = target: T2, hsHDAC6 (Homo sapiens, UniProt Q9UBN7); test: In vitro hsHDAC6 inhibition (ZMAL substrate, trypsin developer); format: biochemical; details: for IC50: n=2, mean ± S.E.M.
T2 sequence (Q9UBN7 1-1215): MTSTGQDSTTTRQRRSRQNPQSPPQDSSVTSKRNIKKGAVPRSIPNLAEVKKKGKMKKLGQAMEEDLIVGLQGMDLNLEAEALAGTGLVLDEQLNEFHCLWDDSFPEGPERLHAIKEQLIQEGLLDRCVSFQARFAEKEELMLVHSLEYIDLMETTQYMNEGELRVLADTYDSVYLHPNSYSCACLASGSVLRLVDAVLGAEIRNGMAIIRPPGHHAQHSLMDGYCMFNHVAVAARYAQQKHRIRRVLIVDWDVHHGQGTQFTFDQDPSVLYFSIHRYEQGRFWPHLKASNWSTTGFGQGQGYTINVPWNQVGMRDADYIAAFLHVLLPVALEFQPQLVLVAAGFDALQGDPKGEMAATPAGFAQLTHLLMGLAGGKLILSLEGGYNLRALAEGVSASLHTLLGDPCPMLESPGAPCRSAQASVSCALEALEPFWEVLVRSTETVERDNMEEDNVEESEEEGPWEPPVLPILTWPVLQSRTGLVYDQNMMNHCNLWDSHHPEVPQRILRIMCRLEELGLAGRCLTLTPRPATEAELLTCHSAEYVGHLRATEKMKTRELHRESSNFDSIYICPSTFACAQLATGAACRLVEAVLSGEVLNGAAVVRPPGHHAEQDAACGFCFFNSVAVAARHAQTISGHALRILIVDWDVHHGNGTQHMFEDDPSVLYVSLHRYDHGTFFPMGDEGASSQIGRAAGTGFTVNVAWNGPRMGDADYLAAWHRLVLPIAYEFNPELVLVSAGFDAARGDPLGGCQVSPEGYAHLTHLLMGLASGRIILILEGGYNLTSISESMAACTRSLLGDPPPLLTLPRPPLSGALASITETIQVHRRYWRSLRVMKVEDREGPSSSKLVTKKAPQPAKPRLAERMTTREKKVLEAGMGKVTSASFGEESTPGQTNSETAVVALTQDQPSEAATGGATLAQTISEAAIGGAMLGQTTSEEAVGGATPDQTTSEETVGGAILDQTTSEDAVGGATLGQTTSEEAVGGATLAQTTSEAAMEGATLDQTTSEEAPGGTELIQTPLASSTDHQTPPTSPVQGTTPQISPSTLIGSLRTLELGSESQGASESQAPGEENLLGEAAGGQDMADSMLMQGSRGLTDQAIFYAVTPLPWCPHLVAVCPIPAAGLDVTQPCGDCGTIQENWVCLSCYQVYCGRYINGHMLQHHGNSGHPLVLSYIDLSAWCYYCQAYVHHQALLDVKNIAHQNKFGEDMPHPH

[4] = target: T3, hsHDAC1 (Homo sapiens, UniProt Q13547); test: In vitro hsHDAC1 inhibition (ZMAL substrate, trypsin developer); format: biochemical; details: for inhibition at 10 µM: read-out: hsHDAC1 (% inhibition, ZMAL)
[5] = target: T4, hsHDAC8 (Homo sapiens, UniProt Q9BY41); test: In vitro hsHDAC8 inhibition, homogeneous fluorescence assay (Fluor de Lys substrate); format: biochemical; details: n=2; mean ± S.E.M.
T4 construct: made in house
T4 sequence (Q9BY41 1-377): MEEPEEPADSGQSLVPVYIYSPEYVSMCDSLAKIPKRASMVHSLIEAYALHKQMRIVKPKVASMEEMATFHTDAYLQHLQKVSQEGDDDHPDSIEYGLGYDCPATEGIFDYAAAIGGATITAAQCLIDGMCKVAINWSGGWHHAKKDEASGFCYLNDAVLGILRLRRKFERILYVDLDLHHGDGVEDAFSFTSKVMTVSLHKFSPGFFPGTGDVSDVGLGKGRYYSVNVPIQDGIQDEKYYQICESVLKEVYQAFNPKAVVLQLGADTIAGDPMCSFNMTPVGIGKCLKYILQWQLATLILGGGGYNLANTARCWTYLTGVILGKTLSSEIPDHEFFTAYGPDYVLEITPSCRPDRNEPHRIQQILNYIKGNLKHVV

[6] = target: T3, hsHDAC1; set-up: method as in PMID 19007204; details: cited from earlier work
[7] = target: T4, hsHDAC8; set-up: method as in PMID 19007204; details: cited from earlier work
[8] = Schistosoma mansoni, 72 h, read-out: % viability of S. mansoni schistosomula

T3 sequence (Q13547 whole entry): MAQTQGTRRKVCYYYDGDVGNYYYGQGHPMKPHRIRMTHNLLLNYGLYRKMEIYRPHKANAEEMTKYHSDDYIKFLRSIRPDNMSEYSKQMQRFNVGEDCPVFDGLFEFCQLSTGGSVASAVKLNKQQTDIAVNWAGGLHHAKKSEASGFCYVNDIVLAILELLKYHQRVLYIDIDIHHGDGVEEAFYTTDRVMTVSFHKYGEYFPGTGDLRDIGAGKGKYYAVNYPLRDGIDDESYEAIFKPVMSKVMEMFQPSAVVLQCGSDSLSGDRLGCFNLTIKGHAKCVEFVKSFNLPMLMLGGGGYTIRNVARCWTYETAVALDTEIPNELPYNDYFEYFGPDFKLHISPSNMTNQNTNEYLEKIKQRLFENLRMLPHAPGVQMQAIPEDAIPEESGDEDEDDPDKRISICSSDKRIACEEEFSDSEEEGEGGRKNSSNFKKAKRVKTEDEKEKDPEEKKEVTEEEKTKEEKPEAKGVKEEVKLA

inhibition at 5 µM [1]: 51.4%
inhibition at 50 µM [1]: 91.5%
SMILES: O=C(NO)c1cn(-c2cc(Cl)ccc2Oc2ccccc2)nn1 [Compound 29, 1‐(5‐Chloro‐2‐phenoxyphenyl)‐N‐hydroxy‐1H‐1,2,3‐triazole‐4‐carboxamide]
viability at 10 µM [2, 8]: 64.2%
viability at 20 µM [2, 8]: 49.9%
reduction in viability of schistosomula (in words) ([2]; at 10 and 20 μM): significant reduction in viability

inhibition at 10 µM ([1]; @ 10 μM, pretest n=1): 36.1%
SMILES: O=C(NO)c1cn(Cc2ccc(F)cc2)nn1 [Compound 2 d]

inhibition at 5 µM [1]: 49.1%
inhibition at 50 µM [1]: 87.9%
SMILES: O=C(NO)c1cn(-c2ccccc2Oc2ccccc2)nn1 [Compound 28]

inhibition at 5 µM [1]: 14.5%
inhibition at 50 µM [1]: 67.3%
SMILES: O=C(NO)c1cn(-c2cc(Cl)ccc2O)nn1 [Compound 13, 1‐(5‐Chloro‐2‐hydroxyphenyl)‐N‐hydroxy‐1H‐1,2,3‐triazole‐4‐carboxamide]

inhibition at 50 µM [1]: 21%
SMILES: O=C(NO)c1cn(-c2cc(Cl)ccc2OCc2ccc(I)cc2)nn1 [Compound 17, 1‐{5‐Chloro‐2‐[(4‐iodobenzyl)oxy]phenyl}‐N‐hydroxy‐1H‐1,2,3‐triazole‐4‐carboxamide]

inhibition at 5 µM [1]: 49.8%
inhibition at 50 µM [1]: 91.1%
SMILES: Cc1ccc(Oc2ccc(Cl)cc2-n2cc(C(=O)NO)nn2)cc1 [Compound 20]

inhibition at 5 µM [1]: 66.2%
inhibition at 50 µM [1]: 93.4%
IC50 ([1]; n=2, mean ± S.E.M., read-out: smHDAC8 IC50 (Fluor de Lys)): 0.5 µM and 0.504 µM
inhibition at 5 µM ([3]; @ 5 μM): -1.5%
inhibition at 50 µM ([3]; @ 50 μM): 34.5%
inhibition at 5 µM ([4]; @ 5 μM): 11%
inhibition at 50 µM ([4]; @ 50 μM): 38.2%
IC50 [5]: 2.2 ± 0.68 µM
SMILES: O=C(NO)c1cn(-c2cc(Cl)ccc2Oc2ccc(F)cc2)nn1 [Compound 21, 1‐[5‐Chloro‐2‐(4‐fluorophenoxy)phenyl]‐N‐hydroxy‐1H‐1,2,3‐triazole‐4‐carboxamide]
viability at 10 µM [2, 8]: 82%

inhibition at 10 µM ([1]; @ 10 μM, pretest n=1): 39.6%
melting point: 183 °C
SMILES: O=C(NO)c1cn(Cc2ccccc2)nn1 [Compound 2 c]
inhibition of hsHDAC1 (in words) [6]: weakly inhibit
inhibition of hsHDAC8 (in words) [7]: weakly inhibit

inhibition at 5 µM [1]: 23.4%
inhibition at 50 µM [1]: 75.4%
SMILES: O=C(NO)c1cn(-c2ccccc2C(=O)c2ccccc2)nn1 [Compound 32, 1‐(2‐Benzoylphenyl)‐N‐hydroxy‐1H‐1,2,3‐triazole‐4‐carboxamide]

IC50 [1]: 5.12 ± 0.64 µM
inhibition at 10 µM ([1]; @ 10 μM, pretest n=1): 52.5%
melting point: 192 °C
inhibition at 10 µM [3]: 2.2 ± 0.5%
inhibition at 10 µM [4]: 3.3 ± 2.5%
IC50 [5]: 3.47 ± 0.53 µM
SMILES: O=C(NO)c1cn(Cc2ccc(C(F)(F)F)cc2)nn1 [Compound 2 e]

inhibition at 5 µM [1]: 19.5%
inhibition at 50 µM [1]: 63.5%
SMILES: O=C(NO)c1cn(-c2ccccc2O)nn1 [Compound 12]

IC50 [1]: 10.7 ± 1.88 µM
inhibition at 10 µM ([1]; @ 10 μM, pretest n=1): 49.5%
melting point: 178 °C
inhibition at 10 µM [3]: 12.6 ± 9.6%
inhibition at 10 µM [4]: 1.7 ± 3.4%
IC50 [5]: 5.54 ± 0.64 µM
SMILES: O=C(NO)c1cn(CCc2ccccc2)nn1 [Compound 2 f]
inhibition of hsHDAC1 (in words) [6]: weakly inhibit
inhibition of hsHDAC8 (in words) [7]: weakly inhibit

IC50 [1]: 4.44 ± 1.52 µM
inhibition at 10 µM ([1]; @ 10 μM, pretest n=1): 57.9%
IC50 [3]: 42.5 ± 3.64 µM
inhibition at 10 µM [4]: 8.1 ± 1%
IC50 [5]: 12.4 ± 1.08 µM
SMILES: O=C(NO)c1cn(-c2ccccc2)nn1 [Compound 2 b, N ‐Hydroxy‐1‐phenyl‐1H‐1,2,3‐triazole‐4‐carboxamide]
viability at 10 µM [2, 8]: 92.5%

inhibition at 50 µM [1]: 43.5%
SMILES: O=C(NO)c1cn(-c2cc(Cl)ccc2OCc2ccc3ccccc3c2)nn1 [Compound 16]

IC50 [1]: 8.81 ± 1.89 µM
inhibition at 10 µM ([1]; @ 10 μM, pretest n=1): 50.5%
melting point: 182 °C
IC50 [3]: 31.8 ± 6.18 µM
inhibition at 10 µM [4]: 5.4 ± 7%
IC50 [5]: 5.37 ± 0.68 µM
SMILES: O=C(NO)c1cn(CCCc2ccccc2)nn1 [Compound 2 g]
inhibition of hsHDAC1 (in words) [6]: weakly inhibit
inhibition of hsHDAC8 (in words) [7]: weakly inhibit

smHDAC8 (% inhibition, Fluor de Lys) ([1]; @ 10 μM, pretest n=1): nearly no inhibitory activity
inhibition at 10 µM ([1]; @ 10 μM, pretest n=1): 6.8%
SMILES: O=C(NO)c1cn(-c2ccc(C#CC#Cc3ccccc3)cc2)nn1 [Compound 2 j, N ‐Hydroxy‐1‐[4‐(4‐phenylbuta‐1,3‐diynyl)phenyl]‐1H‐1,2,3‐triazole‐4‐carboxamide]

inhibition at 10 µM ([1]; @ 10 μM, pretest n=1): 48%
melting point: 239 °C (dec.)
SMILES: Cl.O=C(NO)c1cn(-c2ccc(C#Cc3ccc(CN4CCOCC4)cc3)cc2)nn1 [Compound 2 i]
